Converted amounts (≈) assume the structure as drawn. The source made the active and inactive calls. The rule behind the calls is not given here.
Key:
[1] = system: Rattus norvegicus; assay: Dose normalized AUC in Sprague-Dawley (CD) rat at 1 mg/kg, iv; assay type: ADME, organism-based; design: dose 1 mg/kg, route intravenous; conditions: in vivo
[2] = Solubility of the compound by chemiluminescent nitrogen detection method; assay type: physicochemical
[3] = biological target: Human immunodeficiency virus type 1 reverse transcriptase (Human immunodeficiency virus 1, UniProt Q72547); assay: Inhibition of HIV1 reverse transcriptase RNase-H activity using dATP, dCTP, dTTP, [8-3H(N)]-dGTP, oligo1, oligo 2, oligo 3 as substrate preincubated for 30 mins followed by substrate addition measured after 90 mins
[4] = biological target: T1, Human immunodeficiency virus type 1 integrase (Human immunodeficiency virus 1, UniProt Q7ZJM1); assay: Inhibition of recombinant HIV1 integrase bound with donor DNA-SPA beads using [3H] target DNA as substrate assessed as strand transfer activity preincubated for 60 mins followed by substrate addition measured after 25 to 45 mins
[5] = biological target: Human immunodeficiency virus type 1 reverse transcriptase (Human immunodeficiency virus 1) (UniProt Q72547); assay: Inhibition of HIV1 reverse transcriptase DNA polymerase activity up to 10 uM
[6] = Permeability across MDCK cells; assay type: ADME, cell-based, Canis lupus familiaris; conditions: dog, read-out: permeability
[7] = Clearance in Sprague-Dawley (CD) rat at 1 mg/kg, iv relative to hepatic blood flow; assay type: ADME, organism-based, Liver; design: dose 1 mg/kg, route intravenous; conditions: in vivo, read-out: CLH
[8] = Half life in Sprague-Dawley (CD) rat at 1 mg/kg, iv and 5 mg/kg, po; assay type: ADME, organism-based; conditions: in vivo
[9] = system: Human immunodeficiency virus; assay: microbe, parasite or virus in culture; conditions: Human immunodeficiency virus 1, HEK-293T, 48 h
Description: Antiviral activity against Vesicular stomatitis virus G-pseudotyped HIV infected in human 293T cells transfected with pGJ3-Luci after 2 days by single round infectivity assay

[10] = biological target: T1, Human immunodeficiency virus type 1 integrase; assay: Inhibition of HIV1 integrase bound with donor DNA-SPA beads using 3'-end fluorescein isothiocyanate labeled target DNA as substrate assessed as strand transfer activity incubated prior to substrate addition
[11] = biological target: T1, Human immunodeficiency virus type 1 integrase; assay: Inhibition of recombinant HIV1 N-terminal His6-tagged integrase expressed in Escherichia coli using 32P-labeled preprocessed HIV-1 U5 DNA as substrate assessed as strand transfer activity after 2 hrs by densitometric analysis
[12] = Inhibition of HIV1 reverse transcriptase strand transfer activity
[13] = biological target: T1, Human immunodeficiency virus type 1 integrase; assay: Inhibition of HIV1 integrase strand transfer activity

T1 sequence (Q7ZJM1 whole entry): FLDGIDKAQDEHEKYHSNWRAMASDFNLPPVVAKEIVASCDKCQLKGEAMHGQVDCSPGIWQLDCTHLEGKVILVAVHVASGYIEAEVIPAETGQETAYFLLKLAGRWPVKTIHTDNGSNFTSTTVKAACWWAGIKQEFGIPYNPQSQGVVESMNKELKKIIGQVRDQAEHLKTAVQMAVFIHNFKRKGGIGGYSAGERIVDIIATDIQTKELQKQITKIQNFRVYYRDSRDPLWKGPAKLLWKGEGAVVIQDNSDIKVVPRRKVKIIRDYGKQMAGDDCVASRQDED

Structure (SMILES) | AUC/dose [1] [ng·h/mL/mg] | IC50 [3] [µM] | IC50 [4] [µM] | inhibition [5] | IC50 [9] [µM] | also measured
O=c1nc(Nc2ccc(N3CCOCC3)cc2)c2cccnc2n1O | 314 | 0.05 | 0.5 | inactive | 0.25 | solubility [2]: 161 µM (≈ 54.6 µg/mL); Papp [6]: 0.7 ×10⁻⁶ cm/s; clearance [7]: 45 mL/min/kg; half-life [8]: 2.4 h
O=c1nc(NCc2ccc(-c3ccncc3)cc2)c2cccnc2n1O | 1000 | 0.016 | 1.26 | inactive | – | –
O=C(NCc1ccc(F)cc1)c1nc(N2CCCCS2(=O)=O)c2cccnc2c1O | – | – | – | – | – | IC50 [10]: 10 µM
O=c1nc(NCc2ccc(F)cc2)c2cccnc2n1O | – | 0.158 | 3.16 | inactive | – | –
O=c1nc(Nc2ccc(-c3ccccc3)cc2)c2cccnc2n1O | 2934 | – | 0.79 | inactive | – | –
O=c1nc(NCc2cccc(CN3CCOCC3)c2)c2cccnc2n1O | – | 0.398 | 15.9 | inactive | 0.3 | –
O=c1nc(Nc2ccc(CN3CCOCC3)cc2)c2cccnc2n1O | 226 | 0.2 | 1.3 | inactive | 0.16 | solubility [2]: 503 µM (≈ 178 µg/mL); Papp [6]: 0.5 ×10⁻⁶ cm/s; clearance [7]: 70 mL/min/kg; half-life [8]: 0.4 h
O=c1nc(NCc2ccc(-c3ccccc3)cc2)c2cccnc2n1O | – | 0.01 | 0.63 | inactive | – | –
O=c1nc(NCc2cccc(N3CCOCC3)c2)c2cccnc2n1O | – | 0.2 | 1.99 | inactive | 0.38 | –
O=c1nc(N2CCC(F)(F)CC2)c2cccnc2n1O | – | 0.501 | 7.94 | inactive | – | –
O=C(NCc1ccc(Cl)cc1)c1ncc2cccnc2c1O | – | – | – | – | – | IC50 [11]: 20 µM; IC50 [12]: 0.135 µM
O=C1Cc2ccccc2C(=O)N1O | – | – | – | – | – | IC50 [13]: > 5000 µM
O=c1nc(NCC2CC2)c2cccnc2n1O | – | 0.398 | 3.9 | – | 0.71 | –
O=c1nc(NCc2ccc(N3CCOCC3)cc2)c2cccnc2n1O | 713 | 0.1 | 1.58 | inactive | 0.47 | solubility [2]: 293 µM (≈ 104 µg/mL); Papp [6]: 1.4 ×10⁻⁶ cm/s; clearance [7]: 55 mL/min/kg; half-life [8]: 4.5 h
O=c1nc(Nc2ccc(-c3ccncc3)cc2)c2cccnc2n1O | 1942 | 0.079 | 1.99 | inactive | – | –
